Common to all, as to assay type: cell-based
For assay [1], the target named is T1, P2X purinoceptor 7 (Homo sapiens) (UniProt Q99572).
T1 sequence (whole entry): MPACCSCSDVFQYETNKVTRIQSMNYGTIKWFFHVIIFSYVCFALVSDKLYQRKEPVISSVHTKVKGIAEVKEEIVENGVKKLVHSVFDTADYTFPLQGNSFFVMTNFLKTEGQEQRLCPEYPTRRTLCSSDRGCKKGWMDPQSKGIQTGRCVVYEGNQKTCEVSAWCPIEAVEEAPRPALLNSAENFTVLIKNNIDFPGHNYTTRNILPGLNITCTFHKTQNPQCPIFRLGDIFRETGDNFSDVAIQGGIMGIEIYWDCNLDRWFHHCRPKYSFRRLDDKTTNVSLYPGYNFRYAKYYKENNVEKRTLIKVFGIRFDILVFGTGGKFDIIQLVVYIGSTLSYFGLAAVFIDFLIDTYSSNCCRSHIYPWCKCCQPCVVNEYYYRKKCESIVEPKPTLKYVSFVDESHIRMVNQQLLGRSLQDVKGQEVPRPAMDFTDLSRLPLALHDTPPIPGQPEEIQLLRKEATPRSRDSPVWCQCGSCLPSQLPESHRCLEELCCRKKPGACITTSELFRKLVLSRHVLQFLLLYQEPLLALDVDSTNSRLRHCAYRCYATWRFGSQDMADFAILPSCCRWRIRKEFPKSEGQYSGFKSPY
The assay can be described thus: Antagonist activity at human P2X7 receptor expressed in HEK293 cells assessed as inhibition of ATP-induced receptor pore formation at 10 uM by propidium iodide dye uptake based fluorescence analysis.

Assay [2] has as its target T2, P2X purinoceptor 7 (Mus musculus) (UniProt Q9Z1M0).
T2 sequence (whole entry): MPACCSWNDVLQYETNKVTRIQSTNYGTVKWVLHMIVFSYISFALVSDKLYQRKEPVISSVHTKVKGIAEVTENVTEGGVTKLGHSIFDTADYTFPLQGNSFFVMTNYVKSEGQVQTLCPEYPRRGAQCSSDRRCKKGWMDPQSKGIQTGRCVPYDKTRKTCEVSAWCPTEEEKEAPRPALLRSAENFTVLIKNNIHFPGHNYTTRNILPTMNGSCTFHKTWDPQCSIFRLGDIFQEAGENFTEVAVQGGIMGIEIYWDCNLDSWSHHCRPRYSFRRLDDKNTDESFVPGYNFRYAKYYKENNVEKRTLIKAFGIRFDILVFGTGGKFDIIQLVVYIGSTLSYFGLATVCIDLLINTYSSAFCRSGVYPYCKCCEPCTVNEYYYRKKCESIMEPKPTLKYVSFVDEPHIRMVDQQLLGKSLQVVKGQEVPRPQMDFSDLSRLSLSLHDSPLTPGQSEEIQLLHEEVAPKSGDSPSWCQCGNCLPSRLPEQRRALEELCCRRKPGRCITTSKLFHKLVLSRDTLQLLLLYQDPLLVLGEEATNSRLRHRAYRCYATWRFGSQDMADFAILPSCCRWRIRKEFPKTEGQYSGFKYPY
The assay is described as follows: Antagonist activity at mouse P2X7 receptor expressed in HEK293 cells assessed as inhibition of ATP-induced receptor pore formation at 10 uM by propidium iodide dye uptake based fluorescence analysis.

For assay [3], the target named is T2, P2X purinoceptor 7 (Mus musculus). The assay is described as follows: Antagonist activity at mouse P2X7 receptor expressed in HEK293 cells assessed as inhibition of ATP-induced receptor pore formation at 200 nM by propidium iodide dye uptake based fluorescence analysis.
The target is the same in assay [4]. The assay is described as follows: Antagonist activity at mouse P2X7 receptor expressed in HEK293 cells assessed as inhibition of ATP-induced receptor pore formation at 1 uM by propidium iodide dye uptake based fluorescence analysis.
The target in assay [5] is T1, P2X purinoceptor 7 (Homo sapiens). The assay is described as follows: Antagonist activity at human P2X7 receptor expressed in HEK293 cells assessed as inhibition of ATP-induced receptor pore formation at 200 nM by propidium iodide dye uptake based fluorescence analysis.
Assay [6] deals with T3, P2X purinoceptor 7 (Homo sapiens, UniProt Q99572).
T3 sequence (Q99572 whole entry): T1 sequence (whole entry)
The assay is described as follows: Antagonist activity at human P2X7 receptor expressed in HEK293 cells assessed as inhibition of ATP-induced receptor pore formation by propidium iodide dye uptake based fluorescence analysis.

In assay [7] the target is T1, P2X purinoceptor 7 (Homo sapiens). The assay can be described thus: Antagonist activity at human P2X7 receptor expressed in HEK293 cells assessed as inhibition of ATP-induced receptor pore formation at 1 uM by propidium iodide dye uptake based fluorescence analysis.
The target in assay [8] is T4, P2X purinoceptor 7 (Mus musculus, UniProt Q9Z1M0).
T4 sequence (Q9Z1M0 whole entry): T2 sequence (whole entry)
The assay can be described thus: Antagonist activity at mouse P2X7 receptor expressed in HEK293 cells assessed as inhibition of ATP-induced receptor pore formation by propidium iodide dye uptake based fluorescence analysis.

This note sets out measurements from ChEMBL document CHEMBL5360655, “Design, Synthesis, and Biological Evaluation of Novel P2X7 Receptor Antagonists for the Treatment of Septic Acute Kidney Injury” (J Med Chem, 2023).

The structures appear in SMILES notation. Calls of active or inactive are those of the source. No cut-off for these calls is given here.

By inhibition is commonly meant the relative decrease from the control value, in per cent. Turning to `O=C(NCc1cn(-c2cc(Cl)ccn2)nn1)c1c(Cl)cccc1Br`, the inhibition in assay [1] amounted to 23.1%; in assay [2] (filed as antagonist) it was 62.3%.

The term IC50 denotes the midpoint of a concentration-inhibition curve. As for `CS(=O)(=O)c1ccc(-c2nc(C(=O)NCc3cn(-c4ccc(Br)cn4)nn3)cs2)cc1`, the inhibition entry in assay [3] and in assay [4] was “inactive” throughout. For the same compound, the inhibition in assay [5] worked out at 11%; in assay [7] (filed as antagonist) it was 51.6%. At P2X purinoceptor 7 [6], the IC50 worked out at 811 nM.

As to `O=C(NCc1cn(-c2cc(Cl)ccn2)nn1)c1cc(-c2cccc3[nH]ccc23)ccc1Cl`, in assay [3], the inhibition result is “inactive”. Also, the values for the inhibition in assay [4], in assay [5] and in assay [7] were 10.2%, 15.6% and 34.1%, respectively.

On to `Cc1cccc(Cl)c1C(=O)NCc1cn(-c2cc(Cl)ccn2)nn1`, for which, in assay [1], the inhibition entry is “inactive”. Also, in assay [2], the inhibition is 34.4%.

For `O=C(NCc1cn(-c2cc(Cl)ccn2)nn1)c1ccccc1Cl`, the inhibition entry in assay [1] and in assay [2] was “inactive” each time.

Regarding `O=C(NCc1cn(-c2cc(Cl)ccn2)nn1)c1ccc(Cl)cc1`, in assay [1], the inhibition entry is “inactive”. The inhibition in assay [2] (filed as antagonist) came to 62.8%.

In the case of `Nc1ccc(-c2ncc(C(=O)NCc3cn(-c4cc(Cl)ccn4)nn3)s2)cc1`, the inhibition in assay [3] (filed as antagonist) is 51.7%; in assay [4] (filed as antagonist), 60.7%; in assay [5] (filed as antagonist) it was 46.2%; in assay [7], 39.2%. Further, the concentration for half-maximal inhibition (IC50) at P2X purinoceptor 7 [8] was found to be 188 nM.

Regarding `CS(=O)(=O)c1ccc(-c2nc(C(=O)NCc3cn(-c4cccc(Br)n4)nn3)cs2)cc1`, the inhibition entry in assay [3] and in assay [4] was “inactive” in each case. For the same compound, the results for the inhibition in assay [5] and in assay [7] (filed as antagonist) were 10.1% and 53.8%, respectively. The concentration for half-maximal inhibition (IC50) at P2X purinoceptor 7 [6] worked out at 710 nM.

Regarding `CS(=O)(=O)c1ccc(-c2ncc(C(=O)NCc3cn(-c4cccc(Br)n4)nn3)s2)cc1`, the inhibition result in assay [3] and in assay [5] was “inactive” throughout. The inhibition in assay [4] (filed as antagonist) was found to be 52%; in assay [7] it was 6.2%. In addition, the concentration for half-maximal inhibition (IC50) on P2X purinoceptor 7 [8] is 626 nM.

On to `CS(=O)(=O)Nc1ccc(-c2ccc(Cl)c(C(=O)NCc3cn(-c4cc(Cl)ccn4)nn3)c2)cc1`, for which the inhibition entry in assay [3], in assay [5] and in assay [7] was “inactive” throughout. Moreover, the inhibition in assay [4] (filed as antagonist) came out at 45.1%.

On to `O=C(NCc1cn(-c2cc(Cl)ccn2)nn1)c1cc(-c2cccc3cc[nH]c23)ccc1Cl`, for which the inhibition turned out to be 25.6% in assay [3] and 62.5% in assay [4] (filed as antagonist). Further, the IC50 at P2X purinoceptor 7 [8] came out at 351 nM. Also, the inhibition entry in assay [5] and in assay [7] was “inactive” each time.

On to `O=C(NCc1cn(-c2cc(Cl)ccn2)nn1)c1ccc(C(F)(F)F)cc1Cl`, for which the inhibition in assay [1] (filed as antagonist) was determined as 45.1%; in assay [2], 39.3%.

Turning to `Nc1cccc(-c2ncc(C(=O)NCc3cn(-c4cc(Cl)ccn4)nn3)s2)c1`, the inhibition in assay [3] amounted to 2.9%; in assay [4] it was 35.2%; in assay [5], 9.8%; in assay [7] (filed as antagonist), 57.3%. The half-maximal inhibitory concentration (IC50) on P2X purinoceptor 7 [6] turned out to be 658 nM.

In the case of `CS(=O)(=O)c1ccc(-c2ccc(Cl)c(C(=O)NCc3cn(-c4cc(Cl)ccn4)nn3)c2)cc1`, the inhibition in assay [3] (filed as antagonist) was 66%; in assay [4] (filed as antagonist), 71%; in assay [1] (filed as antagonist), more than 50%; in assay [5], 22.9%; in assay [7] (filed as antagonist), 40%; in assay [2] (filed as antagonist) it was more than 50%. For the same compound, at P2X purinoceptor 7 [8], the 50% inhibitory concentration (IC50) is 99.1 nM.

As to `CC(C)Cc1ccc(-c2ccc(Cl)c(C(=O)NCc3cn(-c4cc(Cl)ccn4)nn3)c2)cc1`, the inhibition result in assay [3] is “inactive”. Moreover, the inhibition in assay [4] (filed as antagonist) came to 59.3%; in assay [5], 20.7%; in assay [7], 39.2%. The IC50 at P2X purinoceptor 7 [8] was 409 nM.

In the case of `CS(=O)(=O)c1ccc(-c2ncc(C(=O)NCc3cn(-c4ccc(Br)cn4)nn3)s2)cc1`, the inhibition result in assay [3] and in assay [4] was “inactive” each time. The inhibition is 12.4% in assay [5] and 33.3% in assay [7].

Consider `Cc1cc(F)ccc1-c1ccc(Cl)c(C(=O)NCc2cn(-c3cc(Cl)ccn3)nn2)c1`, for which the inhibition turned out to be 17.8% in assay [3], 9.2% in assay [4], 13.4% in assay [5] and 23.3% in assay [7].

As for `CS(=O)(=O)c1ccc(-c2nc(C(=O)NCc3cn(-c4cc(F)ccn4)nn3)cs2)cc1`, the inhibition amounted to 23.3% in assay [3], 41.9% in assay [4] (filed as antagonist) and 23.2% in assay [7]. Besides, the inhibition entry in assay [5] was “inactive”.

As for `O=C(NCc1cn(-c2cc(Cl)ccn2)nn1)c1cc(Br)ccc1Cl`, the figures for the inhibition in assay [1] (filed as antagonist) and in assay [2] were 59.3% and 10%, respectively.

On to `O=C(NCc1cn(-c2cc(Cl)ccn2)nn1)c1cc(-c2cccc3ncccc23)ccc1Cl`, for which the inhibition is 66.7% in assay [3] (filed as antagonist); 72.4% in assay [4] (filed as antagonist); more than 50% in assay [1] (filed as antagonist); 13.6% in assay [5]; 33.1% in assay [7]; more than 50% in assay [2] (filed as antagonist). Moreover, the IC50 on P2X purinoceptor 7 [8] amounted to 138 nM.

As for `O=C(NCc1cn(-c2cc(Cl)ccn2)nn1)c1ccc(C(F)(F)F)c(Br)c1`, the figures for the inhibition in assay [1] (filed as antagonist) and in assay [2] were 53.5% and 22.5%, respectively.

On to `CS(=O)(=O)c1cccc(-c2ncc(C(=O)NCc3cn(-c4cc(Cl)ccn4)nn3)s2)c1`, for which the inhibition entry in assay [3] and in assay [5] was “inactive” each time. Also, the inhibition turned out to be 25.8% in assay [4] and 36.7% in assay [7].

With `O=C(NCc1cn(-c2cc(Cl)ccn2)nn1)c1cccc(C(F)(F)F)c1Cl`, the results for the inhibition in assay [1] (filed as antagonist) and in assay [2] were 46.5% and 13.2%, respectively.

As for `CS(=O)(=O)c1ccc(-c2csc(C(=O)NCc3cn(-c4cc(Cl)ccn4)nn3)n2)cc1`, the inhibition came to 55.2% in assay [3] (filed as antagonist), 74% in assay [4] (filed as antagonist), 5% in assay [5] and 40.9% in assay [7] (filed as antagonist). In addition, the half-maximal inhibitory concentration (IC50) on P2X purinoceptor 7 [8] was 166 nM.

As to `CS(=O)(=O)c1cccc(-c2ccc(Cl)c(C(=O)NCc3cn(-c4cc(Cl)ccn4)nn3)c2)c1`, the inhibition result in assay [3] and in assay [5] was “inactive” throughout. Also, the inhibition in assay [4] (filed as antagonist) is 49.6%; in assay [1] (filed as antagonist) it was more than 50%; in assay [7] (filed as antagonist), 41.9%; in assay [2] (filed as antagonist) it was more than 50%.

With `CS(=O)(=O)c1ccc(-c2ncc(C(=O)NCc3cn(-c4cc(F)ccn4)nn3)s2)cc1`, the inhibition in assay [3] (filed as antagonist) is 68.4%; in assay [4] (filed as antagonist), 61.8%; in assay [5], 37.8%; in assay [7] (filed as antagonist), 45.1%. Moreover, the IC50 on P2X purinoceptor 7 [8] was determined as 196 nM.

As for `Nc1cccc(-c2ccc(Cl)c(C(=O)NCc3cn(-c4cc(Cl)ccn4)nn3)c2)c1`, the inhibition in assay [3] worked out at 19.1%; in assay [5], 24.4%; in assay [7], 21.9%. In addition, the inhibition entry in assay [4] is “inactive”.

As to `CS(=O)(=O)Nc1cccc(-c2ncc(C(=O)NCc3cn(-c4cc(Cl)ccn4)nn3)s2)c1`, the inhibition result in assay [3] and in assay [5] was “inactive” in each case. Moreover, the inhibition in assay [4] is 17.3%; in assay [7], 6.8%.
